How the values were obtained:
Type in all cases: biochemical
[1] = molecular target: T1, His-tagged full length ARK5 (Homo sapiens, UniProt O60285); test: ARK5 Kinase Assay (ARK5 Inhibition Assay); settings: CHKtide substrate, 1 μM ATP
T1 construct: 20 ng His-tagged full length ARK5 (Invitrogen PV4127); His; purchased Invitrogen PV4127
T1 sequence (O60285 1-661): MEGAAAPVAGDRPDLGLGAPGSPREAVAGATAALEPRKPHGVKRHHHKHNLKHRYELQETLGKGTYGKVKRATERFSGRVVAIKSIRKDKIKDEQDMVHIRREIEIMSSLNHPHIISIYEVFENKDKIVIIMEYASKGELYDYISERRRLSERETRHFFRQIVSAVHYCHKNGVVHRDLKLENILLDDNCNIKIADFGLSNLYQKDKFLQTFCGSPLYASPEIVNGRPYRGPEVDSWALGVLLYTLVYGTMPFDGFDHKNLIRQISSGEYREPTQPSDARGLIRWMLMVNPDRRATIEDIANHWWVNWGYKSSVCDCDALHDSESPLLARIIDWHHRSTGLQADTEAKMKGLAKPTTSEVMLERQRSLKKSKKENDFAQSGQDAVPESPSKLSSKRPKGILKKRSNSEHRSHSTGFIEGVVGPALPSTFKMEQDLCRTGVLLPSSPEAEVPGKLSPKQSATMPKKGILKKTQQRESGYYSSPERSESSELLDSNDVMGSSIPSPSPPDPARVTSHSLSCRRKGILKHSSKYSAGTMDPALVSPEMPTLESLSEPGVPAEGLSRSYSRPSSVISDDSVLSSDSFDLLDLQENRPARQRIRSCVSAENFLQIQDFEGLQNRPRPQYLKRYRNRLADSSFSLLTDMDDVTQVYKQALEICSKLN
Experimental: 20 ng His-tagged full length ARK5 (Invitrogen PV4127), a protein kinase, was diluted into kinase buffer (25 mM HEPES pH 7.5, 10 mM MgCl2, 0.5 mM EGTA, 0.5 mM Na3V04, 5 mM β Glycerophosphate, 2.5 mM DTT, 0.01% Triton X-100) and incubated with the indicated concentration of a compound of Table 3 at room temperature for 30 minutes. The kinase reactions were then initiated by the addition of 1 μg (3.28 μM) CHKtide substrate peptide (Upstate 12-414), 1 μM ATP and 10 μCi γ^32 P-ATP. The reactions were incubated at 30° C. for 10 minutes.
Subsequently, the reactions were stopped by adding 3% phosphoric acid. A 10 μl aliquot was then transferred to an appropriate area of a p30 filtermat. The filtermat was allowed to dry for 20 minutes at room temperature and then washed three times with 75 mM phosphoric acid and twice with methanol. The filtermat was then dried for 20 minutes at room temperature. The filtermat was then exposed to X ray film or read in a scintillation counter. The scintillation counting values were plotted as function of log drug concentration using Prism 4 Graph pad software and IC50 values determined by plotting sigmoidal non-linear regression curves with variable slope.

[2] = molecular target: ARK5 (Homo sapiens, UniProt O60285); test: Kinase inhibition panel; settings: 10 μM ATP
[3] = molecular target: c-Kit (Homo sapiens, UniProt P10721); test: Kinase inhibition panel; settings: 10 μM ATP
[4] = molecular target: FGR (Homo sapiens, UniProt P09769); test: Kinase inhibition panel; settings: 10 μM ATP
[5] = molecular target: FLT4NEGFR3 (Homo sapiens, UniProt P35916); test: Kinase inhibition panel; settings: 10 μM ATP
[6] = molecular target: PKCmu (Homo sapiens, UniProt Q15139); test: Kinase inhibition panel; settings: 10 μM ATP
[7] = molecular target: TTK (Homo sapiens, UniProt P33981); test: Kinase inhibition panel; settings: 10 μM ATP
Chain of TTK (P33981 whole entry, species assumed): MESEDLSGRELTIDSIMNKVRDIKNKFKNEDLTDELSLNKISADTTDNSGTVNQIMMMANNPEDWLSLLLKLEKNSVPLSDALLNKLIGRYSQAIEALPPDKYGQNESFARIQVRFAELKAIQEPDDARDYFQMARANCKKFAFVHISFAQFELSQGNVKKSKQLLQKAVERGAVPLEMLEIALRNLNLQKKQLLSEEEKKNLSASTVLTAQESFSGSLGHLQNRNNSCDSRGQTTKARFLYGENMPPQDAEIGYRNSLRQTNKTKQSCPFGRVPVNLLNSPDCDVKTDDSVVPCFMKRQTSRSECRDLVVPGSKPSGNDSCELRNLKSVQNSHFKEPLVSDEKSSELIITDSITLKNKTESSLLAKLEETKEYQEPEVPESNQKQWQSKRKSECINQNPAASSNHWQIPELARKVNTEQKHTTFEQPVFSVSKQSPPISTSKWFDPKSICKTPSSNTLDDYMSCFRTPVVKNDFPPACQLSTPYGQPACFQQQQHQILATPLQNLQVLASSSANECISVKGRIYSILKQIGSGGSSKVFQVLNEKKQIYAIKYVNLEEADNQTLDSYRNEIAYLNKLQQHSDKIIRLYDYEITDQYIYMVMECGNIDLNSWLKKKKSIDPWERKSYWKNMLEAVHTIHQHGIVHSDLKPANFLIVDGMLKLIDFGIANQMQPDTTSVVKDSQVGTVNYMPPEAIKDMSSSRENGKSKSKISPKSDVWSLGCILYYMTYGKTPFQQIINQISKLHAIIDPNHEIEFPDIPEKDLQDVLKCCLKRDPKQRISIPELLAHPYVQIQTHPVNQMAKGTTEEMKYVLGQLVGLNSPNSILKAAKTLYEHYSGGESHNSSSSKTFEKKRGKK

Chain of FLT4NEGFR3 (P35916 25-1363): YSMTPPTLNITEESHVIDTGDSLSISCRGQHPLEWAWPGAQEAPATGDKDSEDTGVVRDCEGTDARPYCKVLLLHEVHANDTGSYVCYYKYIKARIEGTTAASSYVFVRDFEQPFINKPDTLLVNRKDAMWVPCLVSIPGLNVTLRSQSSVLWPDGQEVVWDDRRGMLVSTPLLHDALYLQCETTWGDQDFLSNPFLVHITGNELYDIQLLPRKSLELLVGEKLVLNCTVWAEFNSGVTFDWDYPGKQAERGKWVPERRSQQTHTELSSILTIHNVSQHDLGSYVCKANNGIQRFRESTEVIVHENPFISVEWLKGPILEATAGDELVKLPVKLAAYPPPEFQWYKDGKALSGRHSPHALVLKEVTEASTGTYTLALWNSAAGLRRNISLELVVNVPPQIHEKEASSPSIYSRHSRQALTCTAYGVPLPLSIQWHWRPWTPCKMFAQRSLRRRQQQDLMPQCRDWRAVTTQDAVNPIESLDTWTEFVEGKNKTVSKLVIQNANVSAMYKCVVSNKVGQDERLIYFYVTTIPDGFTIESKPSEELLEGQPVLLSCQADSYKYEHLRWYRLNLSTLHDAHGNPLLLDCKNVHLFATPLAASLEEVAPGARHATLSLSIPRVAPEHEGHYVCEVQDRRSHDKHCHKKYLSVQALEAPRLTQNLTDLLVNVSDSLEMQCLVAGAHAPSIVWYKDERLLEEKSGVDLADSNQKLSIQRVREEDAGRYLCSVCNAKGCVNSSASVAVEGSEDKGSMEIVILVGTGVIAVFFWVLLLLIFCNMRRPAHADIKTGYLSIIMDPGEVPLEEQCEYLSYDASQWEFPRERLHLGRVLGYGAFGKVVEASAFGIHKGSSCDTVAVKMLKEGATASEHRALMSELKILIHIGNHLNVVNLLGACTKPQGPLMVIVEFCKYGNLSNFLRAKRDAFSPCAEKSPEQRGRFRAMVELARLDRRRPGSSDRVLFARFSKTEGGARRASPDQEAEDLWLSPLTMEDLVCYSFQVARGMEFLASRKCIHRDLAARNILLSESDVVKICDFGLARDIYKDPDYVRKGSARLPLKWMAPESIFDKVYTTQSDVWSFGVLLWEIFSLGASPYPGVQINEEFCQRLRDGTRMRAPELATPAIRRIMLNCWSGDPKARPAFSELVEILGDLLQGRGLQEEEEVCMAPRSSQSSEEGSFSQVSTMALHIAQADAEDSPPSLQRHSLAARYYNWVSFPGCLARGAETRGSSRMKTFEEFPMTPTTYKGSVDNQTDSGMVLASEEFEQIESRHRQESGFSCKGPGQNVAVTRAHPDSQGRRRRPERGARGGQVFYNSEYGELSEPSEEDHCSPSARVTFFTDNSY
Chain of PKCmu (Q15139 whole entry): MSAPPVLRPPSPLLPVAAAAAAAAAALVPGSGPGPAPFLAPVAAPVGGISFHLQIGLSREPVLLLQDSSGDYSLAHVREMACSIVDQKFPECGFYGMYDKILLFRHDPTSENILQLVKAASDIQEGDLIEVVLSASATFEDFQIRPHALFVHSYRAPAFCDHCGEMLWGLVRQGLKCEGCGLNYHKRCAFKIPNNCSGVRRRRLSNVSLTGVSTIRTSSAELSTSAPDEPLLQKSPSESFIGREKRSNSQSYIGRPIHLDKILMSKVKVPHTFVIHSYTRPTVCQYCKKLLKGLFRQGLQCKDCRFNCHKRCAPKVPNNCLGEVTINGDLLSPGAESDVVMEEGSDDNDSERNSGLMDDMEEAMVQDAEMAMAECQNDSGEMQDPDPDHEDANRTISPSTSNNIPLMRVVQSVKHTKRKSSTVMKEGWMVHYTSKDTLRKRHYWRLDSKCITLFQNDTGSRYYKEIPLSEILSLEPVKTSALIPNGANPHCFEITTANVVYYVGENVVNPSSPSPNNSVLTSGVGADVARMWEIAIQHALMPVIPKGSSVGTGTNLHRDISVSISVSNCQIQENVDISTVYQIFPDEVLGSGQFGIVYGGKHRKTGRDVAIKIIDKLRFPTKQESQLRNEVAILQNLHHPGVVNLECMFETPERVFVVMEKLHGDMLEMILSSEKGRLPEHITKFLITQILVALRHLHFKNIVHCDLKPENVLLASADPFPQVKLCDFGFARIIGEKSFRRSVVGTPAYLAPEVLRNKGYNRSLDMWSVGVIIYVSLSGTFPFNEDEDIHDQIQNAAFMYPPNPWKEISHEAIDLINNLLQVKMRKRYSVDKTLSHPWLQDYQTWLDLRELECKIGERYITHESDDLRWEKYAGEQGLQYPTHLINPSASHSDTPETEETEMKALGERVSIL
Chain of c-Kit (P10721 26-976): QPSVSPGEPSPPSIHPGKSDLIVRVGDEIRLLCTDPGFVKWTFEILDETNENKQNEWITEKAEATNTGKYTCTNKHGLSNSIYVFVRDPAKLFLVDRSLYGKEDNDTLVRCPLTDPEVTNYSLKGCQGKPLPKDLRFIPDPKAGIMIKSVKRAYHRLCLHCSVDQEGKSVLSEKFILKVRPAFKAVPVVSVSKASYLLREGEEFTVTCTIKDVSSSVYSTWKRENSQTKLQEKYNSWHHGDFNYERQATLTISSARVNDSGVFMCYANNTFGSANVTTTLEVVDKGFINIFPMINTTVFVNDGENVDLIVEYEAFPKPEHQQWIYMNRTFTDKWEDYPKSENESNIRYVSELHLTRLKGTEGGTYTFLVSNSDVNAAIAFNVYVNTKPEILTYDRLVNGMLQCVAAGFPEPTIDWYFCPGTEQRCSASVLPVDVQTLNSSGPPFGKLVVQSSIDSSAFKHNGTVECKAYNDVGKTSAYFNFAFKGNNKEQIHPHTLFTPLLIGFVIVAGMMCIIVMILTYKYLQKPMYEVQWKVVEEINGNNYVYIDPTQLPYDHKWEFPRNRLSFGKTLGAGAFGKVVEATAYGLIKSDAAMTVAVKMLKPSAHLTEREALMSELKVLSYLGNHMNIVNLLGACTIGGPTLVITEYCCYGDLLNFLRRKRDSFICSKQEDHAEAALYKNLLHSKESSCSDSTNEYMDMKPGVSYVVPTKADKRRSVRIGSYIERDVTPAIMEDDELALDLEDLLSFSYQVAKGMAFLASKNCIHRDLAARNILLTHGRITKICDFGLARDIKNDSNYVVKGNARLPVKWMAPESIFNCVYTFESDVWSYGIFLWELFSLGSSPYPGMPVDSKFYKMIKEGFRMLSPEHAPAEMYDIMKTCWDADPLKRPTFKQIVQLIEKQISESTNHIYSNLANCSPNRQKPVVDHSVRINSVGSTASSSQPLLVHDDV
Chain of FGR (P09769 whole entry, species assumed): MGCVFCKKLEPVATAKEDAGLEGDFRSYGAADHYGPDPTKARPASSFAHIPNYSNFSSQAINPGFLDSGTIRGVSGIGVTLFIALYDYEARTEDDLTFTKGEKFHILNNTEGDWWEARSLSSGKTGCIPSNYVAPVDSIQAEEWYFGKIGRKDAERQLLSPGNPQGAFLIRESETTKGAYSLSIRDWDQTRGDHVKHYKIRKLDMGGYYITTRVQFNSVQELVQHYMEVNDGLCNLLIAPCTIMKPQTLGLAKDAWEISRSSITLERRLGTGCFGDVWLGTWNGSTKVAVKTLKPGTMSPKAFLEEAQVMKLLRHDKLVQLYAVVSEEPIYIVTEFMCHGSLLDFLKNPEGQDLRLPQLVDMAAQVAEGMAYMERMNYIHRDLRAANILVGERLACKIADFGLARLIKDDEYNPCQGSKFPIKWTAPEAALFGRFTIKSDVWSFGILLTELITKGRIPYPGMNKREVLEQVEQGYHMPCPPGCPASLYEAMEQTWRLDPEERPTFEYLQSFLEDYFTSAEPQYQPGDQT

Row | SMILES | IC50 [1] [nM] | other results
1 | CN1CCN(c2ccc(Nc3ncc4cc(S(C)(=O)=O)c(=O)n(C5CCCC5)c4n3)cc2)CC1 [Comp. Ex. 1, 8-cyclopentyl-2-((4-(4-methylpiperazin-1-yl)phenyl)amino)-6-(methylsulfonyl)pyrido[2,3-d]pyrimidin-7(8H)-one, reference compound] | > 10000 | 
2 | CN1CCN(c2ccc(Nc3ncc4cc(S(=O)(=O)c5ccc(Cl)cc5)c(=O)n(C5CCCC5)c4n3)cc2)CC1 [Comp. Ex. 2, 6-((4-chlorophenyl)sulfonyl)-8-cyclopentyl-2-((4-(4-methylpiperazin-1-yl)phenyl)amino)pyrido[2,3-d]pyrimidin-7(8H)-one, reference compound] | > 10000 | 
3 | COc1ccc(Nc2ncc3ccc(=O)n(C4CCCC4)c3n2)cc1OC [Comp. Ex. 4, 8-cyclopentyl-2-((3,4-dimethoxyphenyl)amino)pyrido[2,3-d]pyrimidin-7(8H)-one, reference compound] | > 1000 | 
4 | COc1ccc(Nc2ncc3ccc(=O)n(C4CCCC4)c3n2)c(OC)c1 [Comp. Ex. 5, 8-cyclopentyl-2-((2,4-dimethoxyphenyl)amino)pyrido[2,3-d]pyrimidin-7(8H)-one, reference compound] | > 5000 | 
5 | N#Cc1cc2cnc(Nc3ccc(N4CCOCC4)cc3)nc2n(C2CCCC2)c1=O [Compound 13, 8-cyclopentyl-2-((4-morpholinophenyl)amino)-7-oxo-7,8-dihydropyrido[2,3-d]pyrimidine-6-carbonitrile] | 75 | 
6 | COc1cc(Nc2ncc3cc(C#N)c(=O)n(C4CCCC4)c3n2)cc(OC)c1 [Compound 14, 8-cyclopentyl-2-((3,5-dimethoxyphenyl)amino)-7-oxo-7,8-dihydropyrido[2,3-d]pyrimidine-6-carbonitrile] | 75 | 
7 | COc1cc(Nc2ncc3cc(C#N)c(=O)n(C4CCCC4)c3n2)cc(OC)c1OC [Compound 15, 8-cyclopentyl-7-oxo-2-((3,4,5-trimethoxyphenyl)amino)-7,8-dihydropyrido[2,3-d]pyrimidine-6-carbonitrile] | 49.8 | 
8 | CN1CCN(c2ccc(Nc3ncc4cc(C#N)c(=O)n(C5CCCCC5)c4n3)cc2)CC1 [Compound 16, 8-cyclohexyl-2-((4-(4-methylpiperazin-1-yl)phenyl)amino)-7-oxo-7,8-dihydropyrido[2,3-d]pyrimidine-6-carbonitrile] | 43.4 | 
9 | CC(=O)c1c(C)c2cnc(Nc3ccc(N4CCNCC4)cn3)nc2n(C2CCCC2)c1=O [PD0332991, reference compound] |  | IC50 [2]: 3390 nM; IC50 [3]: > 10000 nM; IC50 [4]: > 10000 nM; IC50 [5]: > 10000 nM; IC50 [6]: 126 nM; IC50 [7]: 697 nM

Source: patent publication US8987267B2, “2-substituted-8-alkyl-7-OXO-7,8-dihydropyrido[2,3-D]pyrimidine-6-carbonitriles and uses thereof in treating proliferative disorders” (Temple University—of the Commonwealth System of Higher …, priority 2010, dated 2015)
